{
  "source": "patent US10088479B2",
  "about": "“Biomarker and uses thereof” (ISIS INNOVATION LIMITED, priority 2014, dated 2018)",
  "molecules": {"B1": {"name": "citrullinated FBG: recombinant FBG domain citrullinated in vitro with PAD (protein)", "chain": "GLLYPFPKDCSQAMLNGDTTSGLYTIYLNGDKAEALEVFCDMTSDGGGWIVFLRRKNGRENFYQNWKAYAAGFGDRREEFWLGLDNLNKITAQGQYELRVDLRDHGETAFAVYDKFSVGDAKTRYKLKVEGYSGTAGDSMAYHNGRSFSTFDKDTDSAITNCALSYKGAFWYRNCHRVNLMGRYGDNNHSQGVNWFHWKGHEHSIQFAEMKLRPSNFRNLEGRRKRA", "modifications": "non-natural residues; left off: small tags and cut ends", "notes": "recombinant FBG domain citrullinated in vitro with PAD"}},
  "key": {"[1]": {"system": "primary human macrophages", "experiment": "Cytokine synthesis in primary human macrophages stimulated with FBG peptides", "format": "cell-based", "details": "1 or 20 μM peptide, 24 h", "experimental": "After incubation the tissue was pipetted through a nylon mesh into a sterile beaker. The cells were then washed three times in complete medium (RPMI 1640 supplemented with 10% FCS). RA synovial fibroblasts were isolated from the mixed population of RA membrane cells by selection in DMEM (Bio-Whittaker) supplemented with 10% FBS, […], 100 U/ml penicillin, and streptomycin. Human monocytes were isolated from peripheral blood (London Blood Bank) and macrophages were derived from monocytes after differentiation for 4 days with 100 ng/ml of M-CSF.\n(§1) Macrophages were cultured at 1×10^5 cells/well in RPMI 1640 containing 5% (v/v) FBS and 100 U/ml penicillin/streptomycin in 96-well tissue culture plates for 24 h before stimulation. Cells were incubated for 24 h at 37° C. with no addition, 1.0 μM FBG, 1 ng/ml LPS or 1 or 20 μM FBG peptide. Where stated, cells were pre-incubated with 20 μM FBG peptides for 15 min.\n(§2) Supernatants were examined for the presence of the cytokines TNF-α, IL-6, and IL-8 by enzyme-linked immunosorbent assay (ELISA) according to the manufacturer's instructions (R&D systems). Absorbance was read on a spectrophotometric ELISA plate reader (Labsystems Multiscan Biochromic, Vantaa, Finland) and analyzed using the Ascent software program (Thermo Labsystems, Altrincham, UK)."}, "[2]": {"system": "RA sera", "experiment": "IgG response to cyclic citrullinated FBG peptides in RA and control sera", "format": "binding, human", "details": "RA sera (n=20) vs control sera (n=20)", "from_the_text": "(A) Peptides with sequences corresponding to the amino acid sequence of FBG were designed, with the addition of cysteine residues at the amino and carboxy termini and the exchange of arginine for citrulline residues at positions identified by LC-MS/MS. (B) IgG response to citrullinated FBG peptides and arginine containing control peptides in patients with rheumatoid arthritis (RA; n=20) and healthy controls (n=20). The 95th percentile of the control sera was used to determine positivity (dashed line). Mann-Whitney U test was used to calculate p values for differences between groups (n.s.=no significant difference, *=p<0.05 and **=p<0.01, ***=p<0.001, […]).\nWith reference to FIG. 31, the antibody response in 20 RA and 20 control sera to 6 cyclic FBG peptides, encompassing citrulline residues was evaluated."}, "[3]": {"system": "RA synovial membrane cultures", "experiment": "Blockade of spontaneous cytokine synthesis in RA synovial membrane cultures by FBG peptides", "format": "cell-based, human", "details": "24 h; for inhibition of cytokine synthesis at the highest concentrations: RA membrane cultures, peptide 25, 100 or 250 μM, highest concentration; for TNF and IL8 synthesis (spontaneous): RA synovial membrane cultures, 100 μM peptide", "experimental": "RA membrane cells (representing a mixed population of all synovial cell types) were isolated from synovial membranes obtained from patients undergoing joint replacement surgery (Brennan (1989)). Synovial membrane tissue was digested in RPMI 1640 (GIBCO) containing 5% fetal calf serum (FCS) (GIBCO), 5 mg/ml collagenase type IV (Sigma) and 0 15 mg/ml DNAse type I (Sigma) and incubated at 37° C. for 2 h.\nImmediately after isolation, RA membrane cells were cultured at 1×10^5 cells/well in RPMI 1640 containing 10% (v/v) FBS and 100 U/ml penicillin/streptomycin in 96-well tissue culture plates. Cells were incubated for 24 h at 37° C. with no addition, buffer control (PBS, 1% BSA, 0.01% NaN3), or with 25 μm, 100 μM or 250 μM of each FBG spanning peptide.\nas §2"}, "[4]": {"system": "human macrophages", "experiment": "FBG or LPS induced cytokine synthesis in human macrophages after pre-incubation with FBG peptides", "format": "cell-based", "details": "pre-incubation with 20 μM peptide, 24 h; for FBG mediated cytokine synthesis: then 1 μM whole FBG", "experimental": "as §1, §2"}, "[5]": {"system": "primary human macrophages", "experiment": "TNF synthesis in primary human macrophages stimulated with native or citrullinated FBG", "format": "cell-based", "details": "0.1-1.0 μM, 24 h", "experimental": "Primary human macrophages were isolated as described above and cultured at 1×10^5 cells/well in RPMI 1640 containing 5% (v/v) FBS and 100 U/ml penicillin/streptomycin in 96-well tissue culture plates for 24 h before stimulation. Cells were incubated for 24 h at 37° C. with no addition (UN), different concentrations (uM) of native FBG (nFBG) or cit FBG (cFBG) or citrullination buffer alone (CIT) or cit buffer plus PAD enzyme (CIT+PAD).\nas §2, with “TNF-α” for “TNF-α, IL-6, and IL-8”"}, "[6]": {"system": "human dermal fibroblasts (HDF)", "experiment": "Cell adhesion to coated FBG, crystal violet", "format": "cell-based", "details": "coated wells, 45 minutes", "experimental": "(§3) (A) The sequence identified to bind integrin αvβ3 is shown in white (Yokoyama et al., 2000). Within this sequence two Arginines (shown in black) were identified to be citrullinated. (B) Wells of a 96 well plate were coated with different concentrations of FBG, citrullinated FBG (cFBG), FBG incubated in buffer without Calcium (FBG —Ca^2+), or FBG incubated without PAD (FBG —PAD). As a positive control wells were coated with Fibronectin (FN) (1 ug/ml), and coating with BSA (10 mg/ml) served as negative control. Plates were incubated with human dermal fibroblasts (HDF) or synovial fibroblasts from RA patients (RAF) for 45 minutes and adhesion was measured by determining absorbance of attached cells after staining with crystal violet (0.1%). Data are shown as the mean of at least four independent experiments+s.e.m., *=p<0.05, **=p<0.01."}, "[7]": {"system": "synovial fibroblasts from RA joints (RAF)", "experiment": "Cell adhesion to coated FBG, crystal violet", "format": "cell-based, human", "details": "coated wells, 45 minutes", "experimental": "as §3"}},
  "note": "Where no end group is shown, it is not given here. [ ]: non-standard residue; d: D form. Cit = NC(=O)NCCC[C@H](N)C(=O)O",
  "data": [
    {"molecule": "KTRYKLKVEGYSGTAGDSMAYHNGRSFST [Peptide 6]", "values": [
      {"measurement": "induction of cytokine synthesis", "setting": "[1]", "value": "induced cytokine synthesis in a dose dependent manner"}
    ]},
    {"molecule": "CEMKL-Cit-PSNF-Cit-NLEGRRKRC (CEMKL[Cit]PSNF[Cit]NLEGRRKRC; also: cyclic, closure not given here) [CIT209/214]", "values": [
      {"measurement": "antibody response", "setting": "[2]", "value": "strong antibody response"}
    ]},
    {"molecule": "CEMKLRPSNFRNLEG-Cit-Cit-KRC (CEMKLRPSNFRNLEG[Cit][Cit]KRC; also: cyclic, closure not given here) [CIT219/220]", "values": [
      {"measurement": "antibody response", "setting": "[2]", "value": "strong antibody response"}
    ]},
    {"molecule": "ELRVDLRDHGETAFAVYDKFSVGDAKTRYK [Peptide 5]", "values": [
      {"measurement": "effect on TNF synthesis", "setting": "[3]; RA membrane cells", "value": "no effect"},
      {"measurement": "maximal inhibition of IL8 synthesis", "setting": "[3]; RA membrane cells, dose dependent", "value": 81, "unit": "%"},
      {"measurement": "induction of cytokine synthesis", "setting": "[1]", "value": "induced cytokine synthesis in a dose dependent manner"},
      {"measurement": "FBG mediated cytokine synthesis", "setting": "[4]", "value": "specifically blocked"}
    ]},
    {"molecule": "WIVFLRRKNGRENFYQNWKAYAAGFGDRRE [Peptide 3]", "values": [
      {"measurement": "inhibition of cytokine synthesis at the highest concentrations", "setting": "[3]", "value": 95, "unit": "%"},
      {"measurement": "TNF and IL8 synthesis (spontaneous)", "setting": "[3]", "value": "inhibited"}
    ]},
    {"molecule": "WYRNCHRVNLMGRYGDNNHSQGVNWFHWKG [Peptide 8]", "values": [
      {"measurement": "inhibition of cytokine synthesis at the highest concentrations", "setting": "[3]", "value": 56, "unit": "%"},
      {"measurement": "TNF and IL8 synthesis (spontaneous)", "setting": "[3]", "value": "inhibited"},
      {"measurement": "LPS induced cytokine synthesis", "setting": "[4]; then 1 ng/ml LPS", "value": "blocked"},
      {"measurement": "FBG mediated cytokine synthesis", "setting": "[4]", "value": "blocked"}
    ]},
    {"molecule": "CVFLRRKNG-Cit-ENFYQNWC (CVFLRRKNG[Cit]ENFYQNWC; also: cyclic, closure not given here) [CIT55]", "values": [
      {"measurement": "antibody response", "setting": "[2]", "value": "strong antibody response"}
    ]},
    {"molecule": "TIGLLYPFPKDCSQAMLNGDTTSGLYTIYL [Peptide 1]", "values": [
      {"measurement": "induction of cytokine synthesis", "setting": "[1]", "value": "induced cytokine synthesis in a dose dependent manner"}
    ]},
    {"molecule": "B1", "values": [
      {"measurement": "cytokine (TNFα) synthesis compared with native FBG", "setting": "[5]", "value": "better at stimulating cytokine (e.g. TNFα) synthesis"},
      {"measurement": "adhesion of HDF", "setting": "[6]", "value": "reduces adhesion"},
      {"measurement": "adhesion of RAF", "setting": "[7]", "value": "reduces adhesion"}
    ]}
  ]
}
